The numbers were not newly measured in patent US20040110774A1, “Methods and formulations of using A1 adenosine receptor antagonists and P2x purinoceptor antagonists for the treatment and prevention of immune system disorders” (priority 2001, published 2004), which cites them from elsewhere.

Structures are written as SMILES.

The target of one data set is T1, A1 adenosine receptor (Homo sapiens, UniProt P30542).
T1 sequence (P30542 1-326): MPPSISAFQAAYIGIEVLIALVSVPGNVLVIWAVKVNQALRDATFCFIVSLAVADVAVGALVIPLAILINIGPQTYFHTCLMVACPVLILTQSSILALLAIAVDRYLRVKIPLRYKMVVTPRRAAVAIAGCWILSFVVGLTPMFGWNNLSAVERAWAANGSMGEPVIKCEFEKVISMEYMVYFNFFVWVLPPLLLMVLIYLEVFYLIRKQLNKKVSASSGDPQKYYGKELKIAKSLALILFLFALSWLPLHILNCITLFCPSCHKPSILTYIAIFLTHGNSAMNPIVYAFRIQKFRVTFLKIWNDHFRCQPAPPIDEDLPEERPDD
The following applies: in tissues.

Another data set relates to RAW 264.7 macrophages. To be noted: LPS-stimulated RAW 264.7 macrophages.

As for `CCCn1c(=O)c2[nH]c(C3CCCC3)nc2n(CCC)c1=O` [DPCPX, 1,3-dipropyl-8-cyclopentylxanthine], the nonspecific binding entry on A1 adenosine receptor was “less than 1%”.
Consider `Cc1nc(N=Nc2ccc(S(=O)(=O)O)cc2S(=O)(=O)O)c(COP(=O)(O)O)c(C=O)c1O` [PPADS, pyridoxal-phosphate-6-azophenyl-2′,4′-disulphonic acid], for which the “effect of LPS on the expression of iNOS” value with iNOS is “prevent the effect of LPS on the expression of iNOS”.
In the case of `Nc1ncnc2c1ncn2[C@@H](C=O)O[C@@H](C=O)COP(=O)(O)OP(=O)(O)OP(=O)(O)O` [o-ATP, Periodate oxidized adenosine 5′-triphosphate], in the data set on RAW 264.7 macrophages, the NF-kappa-B-like binding activity result was “inhibit NF-kappa-B-like binding activity”, the “effects of LPS on nitric oxide (NO) production” value was “inhibit the effects of LPS on nitric oxide (NO) production” and the “expression of inducible nitric oxide synthase (iNOS)” value was “inhibit the expression of inducible nitric oxide synthase (iNOS)”.
